Consider two molecules from patent US20220296557A1, “COMBINATIONS OF BCL-2/BCL-XL INHIBITORS AND RELATED USES” (Ascentage Pharma (Suzhou) Co., Ltd., priority 2020, published 2022).

Bounds are passed on as bounds.

Holding throughout (assay type): cell-based
Experiment [1] concerns BON-1. Description: Cell viability/CTG assay, BON-1. The settings on record: BON-1 cell line; CTG assay, 72 hr; values approximate; read-out: IC (μM, CTG assay: 72 hr). As for the experimental part:
(§1) FIGS. 3A and 3B are a set of graphs showing the cell viability/CTG assays for NEN cell lines treated with BCL-2/xL inhibitor Compound No. 2 (an active metabolite of Compound No. 1)(FIG. 3A) or ABT-263 (FIG. 3B).
(§2) The activity of Compound No. 2 (an active metabolite of Compound No. 1) in overcoming apoptotic blockade in neuroendocrine neoplasm was tested, alone or in comparison with ABT-263.

For experiment [2], the system named is NEN cell lines. Description: NEN cell viability (general statement). The note with it: FIGS. 3A and 3B. The protocol: as §1, §2
Experiment [3] has as its system MIN-6. Description: Cell viability/CTG assay, MIN-6. The settings on record: Mus musculus, MIN6; MIN-6 cell line; CTG assay, 72 hr; values approximate; read-out: IC (μM, CTG assay: 72 hr). The protocol:
as §1, §2

The subject of experiment [4] is NCI-H460. Description: Cell viability/CTG assay, NCI-H460. The note with it: Homo sapiens; NCI-H460 cell line; CTG assay, 72 hr; values approximate; read-out: IC (μM, CTG assay: 72 hr). The protocol:
as §1, §2

The subject of experiment [5] is BAX:BAK complex. Description: BCL-2 family member complex intensity: BAX:BAK. The note with it: BON-1 and QGP-1 treated with BCL-2/xL inhibitors; FIG. 4C. The source says: (§3) FIGS. 4A-4C are a set of graphs showing the BCL-2 family member complex intensity in BON-1 and QGP-I treated with BCL-2/xL inhibitors (FIG. 4A: BCL-xL:BIM complex, FIG. 4B: BCL-xL:PUMA complex; and FIG. 4C: BAX:BAK protein complexes).

The test system of experiment [6] is QGP-1. Description: Cell viability/CTG assay, QGP-1. The note with it: QGP-1 cell line; CTG assay, 72 hr; values approximate; read-out: IC (μM, CTG assay: 72 hr). The protocol:
as §1, §2

For experiment [7], the system named is β-TC3. Description: Cell viability/CTG assay, β-TC3. The note with it: β-TC3 cell line; CTG assay, 72 hr; values approximate; read-out: IC (μM, CTG assay: 72 hr). As for the experimental part:
as §1, §2

The target of experiment [8] is T1, BCL-xL:BIM complex (Homo sapiens, UniProt Q07817).
T1 construct: High expression of BCL-xL protein was found in NEN cell lines; endogenous in cells; host or cells: BON-1 and QGP-1 (printed QGP-I) NEN cell lines
T1 sequence (Q07817 whole entry, one chain of several): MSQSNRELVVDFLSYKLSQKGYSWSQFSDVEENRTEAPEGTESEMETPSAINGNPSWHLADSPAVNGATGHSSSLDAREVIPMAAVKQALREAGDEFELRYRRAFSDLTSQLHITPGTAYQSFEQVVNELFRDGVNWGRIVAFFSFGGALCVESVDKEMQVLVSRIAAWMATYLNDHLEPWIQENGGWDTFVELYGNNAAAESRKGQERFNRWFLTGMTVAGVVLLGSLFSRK
Description: BCL-2 family member complex intensity: BCL-xL:BIM. The note with it: BON-1 and QGP-1 treated with BCL-2/xL inhibitors; FIG. 4A.
Source text: as §3

For experiment [9], the system named is NCI-H727. Description: Cell viability/CTG assay, NCI-H727. The settings on record: Homo sapiens; NCI-H727 cell line; CTG assay, 72 hr; values approximate; read-out: IC (μM, CTG assay: 72 hr). As for the experimental part:
as §1, §2

As for `Cc1c(S(C)(=O)=O)c(-c2cc(F)cc(N3CCN(c4ccc(NS(=O)(=O)c5ccc(N[C@H](CCN6CCC(C(=O)O)CC6)CSc6ccccc6)c(S(=O)(=O)C(F)(F)F)c5)cc4)CC3)c2)c(-c2ccc(Cl)cc2)n1C(C)C` [Compound No. 2], the IC50 in experiment [1] is 0.43 µM; in experiment [3], 2.07 µM; in [4], no less than 10 µM; in experiment [6], 3.78 µM; in [7] it was 0.55 µM; in experiment [9], 3.79 µM. Also, the NEN cell viability result in [2] is on record as “inhibits the NEN cell viability”. For the same molecule, the “BAX:BAK complex” value in experiment [5] is listed as “increases BAX:BAK complex”. Besides, the “BCL-xL:BIM complex” value in experiment [8] was “decreases BCL-xL:BIM complex”.

On to `CC1(C)CCC(c2ccc(Cl)cc2)=C(CN2CCN(c3ccc(C(=O)NS(=O)(=O)c4ccc(N[C@H](CCN5CCOCC5)CSc5ccccc5)c(S(=O)(=O)C(F)(F)F)c4)cc3)CC2)C1` [ABT-263, 4-(4-{[2-(4-Chlorophenyl)-5,5-dimethyl-1-cyclohexen-1-yl]methyl}-1-piperazinyl)-N-[(4-{[(R)-4-(4-morpholinyl)-1-(phenylsulfanyl)-2-butanyl]amino}-3-[(trifluoromethyl)sulfonyl]phenyl)-sulfonyl]benzamide, reference compound], for which the IC50 is 0.91 µM in experiment [1]; 5.56 µM in [3]; 71 µM in experiment [4]; no less than 10 µM in experiment [6]; 1.12 µM in [7]; 3.74 µM in experiment [9].
